Laboratory results taken from patent publication US12097172B2, “Prevention and treatment of diabetic nephropathy” (THE CHILDREN'S MEDICAL CENTER CORPORATION, priority 2016, dated 2024).
Where a name gives a salt, the structure may show the parent alone.

Key:
[1] = tested on: Human podocyte cells; assay: IL8 challenge of human podocytes in vitro (stress fibers, cortical actin, cell blebbing, synaptopodin); type: cell-based
Method: Human podocyte cells bearing a transgene for the thermosensitive (ts58A) variant of the SV40 T antigen, which make them responsive to interferon-γ for proliferation, were cultured and allowed to grow to 80% confluence at 33° C. (designated as day 0). Cells were then thermoshifted to 37° C., causing inactivation of the SV40 T antigen and cessation of cell replication. Podocytes were cultured at different glucose concentrations (normal glucose: 5 mM [NG]; high glucose: 30 mM [HG]) for 5 days. Mannitol was used as an osmotic control for high glucose (mannitol 20 mM+glucose 10 mM) (FIGS. 10A and 10B).
Podocytes were grown on round glass coverslips (VWR, Radnor, PA) were fixed with paraformaldehyde and then permeabilized with 0.3% Triton X-100 (Fisher Scientific, Waltham, MA). Cells were incubated with rhodamine phalloidin (Invitrogen, Carlsbad, CA) to label F-actin networks and visualize stress fibers. Standard fluorescent microscopy was used to assess stress fiber formation. The percentage of cells containing intact actin filaments was assessed by manual cell counting.

[2] = tested on: db/db mice; assay: KC/CXCR2 axis blockade with Reparixin in db/db diabetic mice (urinary albumin excretion, glycemia, kidney histopathology); type: in vivo
Description: Kidneys from db/db mice at 8, 12 and 25 weeks of age were surgically removed using standard techniques. To perform standard light microscopy, kidneys were fixed in 4% buffered paraformaldehyde (PFA), dehydrated, and paraffin-embedded. AxioVision software 4.3 was used to record the images from Periodic Acid Schiff (PAS) and Trichrome staining. The evaluation of mesangial matrix was electronically performed using a macro built on the AxioVision analysis module (Carl Zeiss Spa, Thornwood, NY). Glomeruli were identified as a region of interest (ROI) and mesangium was highlighted by a color threshold protocol. Binary images were then produced and mesangium was automatically calculated as percentage of the glomerular area. Image acquisition was performed with a Zeiss Axioscope 40FL microscope and AxioCam MRc5 digital video camera (Carl Zeiss SpA). AxioVision software 4.3 was used to record images and AxioVision analysis module to analyze the results (Carl Zeiss SpA). In order to assess the potential role of IL8 blockade in DN progression, 7 weeks old db/db mice were treated with Reparixin 15 mg/kg (ip) twice a day for 18 weeks (up to 25 weeks of age). Briefly, animals were housed in metabolic cages (Nalgene) to separate feces and urine within a light-controlled environment and provided with water ad-libitum. Sample collection tubes passed below the cages and through small holes in the bottom of the light controlled environment. Urine samples from db/db mice were collected through a metabolic cage at week 8, 12, and 25. The BeadLyte Mouse Multi-cytokine Beadmaster Kit (Millipore, Billerica, MA) was used according to the manufacturer's protocol to determine cytokine levels of IL8. Briefly, the supernatant was incubated with beads conjugated to the IL8 alone for a specified amount of time, and then with biotinylated reporters and streptavidin-phycoerythrin solution for 30 min. A Luminex100 reader (Luminex Corporation, Austin, TX) was used to measure the sample cytokine level. All in vitro and in vivo experimental data presented herein in the examples were performed in triplicate, unless indicated otherwise. Proteinuria in db/db mice was performed in 10 untreated and 30 treated animals. Prism statistical software (La Jolla, CA—USA) was used for data analysis. […] For discrete variables, χ^2 test was used. For all tests, p<0.05 was considered significant.

[3] = tested on: CXCR1 and CXCR2; settings: mice; cited from earlier work

CC(C)Cc1ccc([C@@H](C)C(=O)NS(C)(=O)=O)cc1 [Reparixin, R(-)-2-[(4-isobutylphenyl)propionyl]-methanesulfonamide]
rescue from IL8 induced damage (loss of stress fibers; increase cortical actin; cell blebbing; loss of synaptopodin expression) ([1]; reparixin 100 μM, IL8 100 nM, normal glucose and high glucose): able to rescue podocytes from IL8 induced damage | mesangial expansion (kidney histopathology) ([2]; db/db mice at 25 weeks of age, treated vs control mice): reduced mesangial expansion | urinary albumin excretion (UAE) ([2]; db/db mice at 25 weeks of age, Reparixin 15 mg/kg ip twice a day for 18 weeks, p<0.01 vs Ctrl): 211.1 ± 24.4 µg/mL | urinary albumin levels over time ([2]; db/db mice, weeks 8, 12 and 25, Reparixin 15 mg/kg ip twice a day): remained stable over time | effect on glycemic control ([2]; db/db mice, Reparixin 15 mg/kg ip twice a day for 18 weeks): No effect

C[C@@H](C(=O)NS(C)(=O)=O)c1ccc(OS(=O)(=O)C(F)(F)F)cc1 [Ladarixin, R(-)-2-[(4′-trifluoromethanesulfonyloxy)phenyl] propionyl-methanesulfonamide sodium salt]
effect on type 1 diabetes [3]: able to block and revert type 1 diabetes in mice

IL8: Interleukin-8 chemokine, ligand of CXCR1 and CXCR2, used as challenge on podocytes
stress fibers (phalloidin staining) ([1]; IL8 100 nM, NG and HG, Ctrl vs. IL8 p<0.05): loss of stress fibers | cell morphology ([1]; IL8 treatment, NG and HG): cell blebbing | cortical actin ([1]; IL8 treatment, NG and HG): dose dependent increase in cortical actin
